What was measured:
[1] = target: T1, Catechol O-methyltransferase (Sus scrofa, UniProt Q99028); assay: In vitro inhibitory activity against Catechol-O-methyltransferase from porcine liver; Uncompetitive mode of inhibition
T1 sequence (Q99028 whole entry): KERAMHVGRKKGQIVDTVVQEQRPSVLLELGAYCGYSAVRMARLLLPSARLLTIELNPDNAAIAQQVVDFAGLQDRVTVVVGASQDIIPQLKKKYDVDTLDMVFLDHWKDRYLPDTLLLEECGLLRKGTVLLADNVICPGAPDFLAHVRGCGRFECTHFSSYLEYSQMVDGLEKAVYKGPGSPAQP

[2] = target: T1, Catechol O-methyltransferase; assay: In vitro inhibitory activity against Catechol-O-methyltransferase from porcine liver; Competitive mode of inhibition
[3] = compound: O=C(NCCCCCCNC(=O)c1ccc(O)c(O)c1)c1ccc(O)c(O)c1; assay: (§1) In vitro inhibitory activity against Catechol-O-methyltransferase from porcine liver; No inhibitory action; conditions: Sus scrofa
[4] = compound: O=C(NCCNC(=O)c1ccc(O)c(O)c1)c1ccc(O)c(O)c1; assay: as §1; conditions: Sus scrofa
[5] = compound: CCCNC(=O)c1ccc(O)c(O)c1; assay: as §1; conditions: Sus scrofa
[6] = compound: O=C(NCCCCCNC(=O)c1ccc(O)c(O)c1)c1ccc(O)c(O)c1; assay: as §1; conditions: Sus scrofa
[7] = compound: C[S+](CC[C@H](N)C(=O)[O-])C[C@H]1O[C@@H](n2cnc3c(N)ncnc32)[C@H](O)[C@@H]1O; assay: (§2) In vitro inhibitory activity against Catechol-O-methyltransferase from porcine liver; conditions: Sus scrofa
[8] = compound: COC(=O)c1cc(O)c(O)c(O)c1; assay: as §2; conditions: Sus scrofa

O=C(NCCNC(=O)c1cc(O)c(O)c(O)c1)c1cc(O)c(O)c(O)c1
Ki [1]: 136 µM

O=C(NCCCNC(=O)c1cc(O)c(O)c(O)c1)c1cc(O)c(O)c(O)c1
Ki [1]: 6.6 µM

CCCNC(=O)c1cc(O)c(O)c(O)c1
Ki [2]: 0.5 µM

O=C(NCCCNC(=O)c1ccc(O)c(O)c1)c1ccc(O)c(O)c1
Ki [2]: 0.3 µM

O=C(NCCCCCCNC(=O)c1cc(O)c(O)c(O)c1)c1cc(O)c(O)c(O)c1
Ki [1]: 35 µM

O=C(NCCCCCNC(=O)c1cc(O)c(O)c(O)c1)c1cc(O)c(O)c(O)c1
Ki [1]: 26.7 µM

B1: Catechol O-methyltransferase (Sus scrofa), Q99028 (protein)
chain: KERAMHVGRKKGQIVDTVVQEQRPSVLLELGAYCGYSAVRMARLLLPSARLLTIELNPDNAAIAQQVVDFAGLQDRVTVVVGASQDIIPQLKKKYDVDTLDMVFLDHWKDRYLPDTLLLEECGLLRKGTVLLADNVICPGAPDFLAHVRGCGRFECTHFSSYLEYSQMVDGLEKAVYKGPGSPAQP
COMT inhibitory activity [3]: No inhibitory action
COMT inhibitory activity [4]: No inhibitory action
COMT inhibitory activity [5]: No inhibitory action
COMT inhibitory activity [6]: No inhibitory action
Km [7]: 44.6 µM
Km [8]: 25.5 µM
